Like-named read-outs stand apart in the source and are kept apart here.
Assays:
Caenorhabditis elegans = assay: C. Elegans Nematode Screening Test and Evaluation (in-vitro); conditions: for inhibition at 5 ppm / mortality at 5 ppm / inhibition at 1.25 ppm / mortality at 1.25 ppm / inhibition at 2.5 ppm / mortality at 2.5 ppm: Caenorhabditis elegans; for inhibition at 5 ppm / inhibition at 1.25 ppm / inhibition at 2.5 ppm: read-out: Percent Inhibition of Reproduction; for mortality at 5 ppm / mortality at 1.25 ppm / mortality at 2.5 ppm: read-out: Percent Mortality
Experimental: This in-vitro test using the free-living nematode Caenorhabditis elegans, is a modification of the assay developed by Simpkin and Coles, J. Chem. Tech. […] One milliliter of a test medium consisting of 5 mg ampicillin, 10,000 units of mycostatin and 10 ml of a dense suspension of Escherichia coli per 100 ml of a buffer solution, was pipetted into each well of a 24-well microtiter plate. The candidate nematicide, suspended at the appropriate concentration in dimethylsulfoxide, was added to the wells in […] volumes. Each rate of application was replicated two to three times. After thorough mixing of the contents of each well, 50 to 100 μl of a nematode suspension in a buffer was added so that each well received 10-15 nematodes. After the nematodes were added, the microtiter plates were incubated at 20° C. for 5-6 days.
The effect of the candidate nematicide on the survival and the reproduction of C. elegans was then evaluated by comparison of the level of population developed in the treated wells with that in untreated wells. Specific effects on population development, such as reduced egg hatch or molting disruption, were noted if they were evident.

[1] = test system: root-knot nematode (Meloidogyne incognita); assay: Initial Root-Knot Nematicidal Activity; assay type: in vivo; conditions: 336 h, read-out: Percent Control; for pest or weed control at 0.312 ppm: Table 2, Application Rate 0.312 ppm; for pest or weed control at 0.625 ppm: Table 2, Application Rate 0.625 ppm; for pest or weed control at 1.25 ppm: Table 2, Application Rate 1.25 ppm; for pest or weed control at 0.078 ppm: Table 2, Application Rate 0.078 ppm; for pest or weed control at 0.156 ppm: Table 2, Application Rate 0.156 ppm; for pest or weed control at 0.313 ppm: Table 2, Application Rate 0.313 ppm
Experimental: (§1) Compounds of this invention were tested as follows for nematicidal and anthelmintic activity as dust formulations (initial and residual activity) and as acetone/water formulations (systemic activity). The formulations are described above.
The activity against root-knot nematode (Meloidogyne incognita) was determined by incorporating the compound of the invention in nematode infested soil at rates in the range of 10 ppm to 0.078 ppm of compound. Several tomato or cucumber seedlings were planted in the nematode infested soil. Two weeks after planting the test pots were evaluated to ascertain the degree of galling (swelling) on the roots of the plants, indicating the control provided by the test chemical.
The results expressed as precent control (determined by knot index) are set forth as averages in Table 2 (appended). Knot index is a numerical designation assigned at evaluation, having the following meanings:
Percent control is related to knot index as follows:
When the Knot Index is between 0 and 1 it is further subdivided as follows to indicate how close the percent control is to 75% or 100%: […]

root-knot nematode = assay: Soil Mobility against root-knot nematode; assay type: in vivo, Meloidogyne incognita; conditions: 336 h, Table 7a, 5% dust, 5 ppm, read-out: Percent Control
Experimental: as §1
The ability of nematicidal compounds of the invention to move through nematode-infested soil […] infested soil, and subsequently eluting the soil with 15 cm of water (equivalent to 15 cm of rainfall) into a series of two or more pots of untreated, but nematode-infested, soil. Specifically, the pots were 8 cm diameter plastic pots containing a 10 cm^3 layer of sand over a coarse grade filter paper disc. Sufficient soil was placed over the sand to fill the pots, and a second filter paper disc was placed over the soil. Each test compound-treated pot was nested over a series of two or more pots containing untreated, but nematode-infested soil, also containing sand filter paper discs as described for the treated soil pots. Fifteen cm of water was slowly dripped into the top pots and the pots were allowed to drain for 16-18 hours to remove excess water. The top filter of each pot was then removed and the pots were planted with a cucumber or tomato seedling. […] "Knot Index" and "Percent Control" are as defined in the initial root-knot nematode tests above.

lesion nematode = assay: Lesion Nematode Test; assay type: in vivo; conditions: read-out: Percent Control
Experimental: as §1
The procedure was substantially the same as in the stunt nematode test described above except that pea seedlings were used. The results (Table 5 appended) show good control with many of the compounds at the application rates tested as compared with untreated samples (no control). "Percent Control" is defined as follows: [formula]

[2] = Table 2, Application Rate 2.5 ppm
[3] = Table 2, Application Rate 5.0 ppm
[4] = Table 2, Application Rate 10.0 ppm

O=[N+]([O-])c1ccc(-c2noc(SCCC(F)=C(F)F)n2)cc1 [Compound 40, 3-(4-nitrophenyl)-5-(3,4,4-trifluoro-3-butenylthio)-1,2,4-oxadiazole]
inhibition at 5 ppm (Caenorhabditis elegans; Table 10 evaluation, 5 ppm): 100%
mortality at 5 ppm (Caenorhabditis elegans; Table 10 evaluation, 5 ppm): 100%
inhibition at 1.25 ppm (Caenorhabditis elegans; Table 10 evaluation, 1.25 ppm): 100%
mortality at 1.25 ppm (Caenorhabditis elegans; Table 10 evaluation, 1.25 ppm): 100%
inhibition at 2.5 ppm (Caenorhabditis elegans; Table 10 evaluation, 2.5 ppm): 100%
mortality at 2.5 ppm (Caenorhabditis elegans; Table 10 evaluation, 2.5 ppm): 100%
pest or weed control at 0.312 ppm [1]: 0%
pest or weed control at 0.625 ppm [1]: 56%
pest or weed control at 1.25 ppm [1]: 84%
pest or weed control at 2.5 ppm [1, 2]: 99%

OCCCC(F)=C(F)F [Compound 7, 4,5,5-trifluoro-4-penten-1-ol]
pest or weed control at 2.5 ppm [1, 2]: 25%
pest or weed control at 5 ppm [1, 3]: 44%
pest or weed control at 10 ppm [1, 4]: 79%

FC(F)=C(F)CCSc1nc(Cc2ccc(F)cc2)no1 [Compound 38, 3-(4-fluorophenylmethyl)-5-(3,4,4-trifluoro-3-butenylthio)-1,2,4-oxadiazole]
pest or weed control at 5 ppm (root-knot nematode; BOTTOM container): 0%
pest or weed control at 5 ppm (root-knot nematode; MIDDLE container): 0%
pest or weed control at 5 ppm (root-knot nematode; TOP container): 0%
pest or weed control at 0.312 ppm [1]: 63%
pest or weed control at 0.625 ppm [1]: 76%
pest or weed control at 1.25 ppm [1]: 96%
pest or weed control at 2.5 ppm [1, 2]: 98%

FC(F)=C(F)CCSc1nnc(SCc2ccccc2F)s1 [Compound 34, 2-(2-fluorophenylmethylthio)-5-(3,4,4-trifluoro-3-butenylthio)-1,3,4-thiadiazole]
inhibition at 5 ppm (Caenorhabditis elegans; Table 9 screen, 5 ppm): 100%
mortality at 5 ppm (Caenorhabditis elegans; Table 9 screen, 5 ppm): 25%
mortality at 5 ppm (Caenorhabditis elegans; Table 10 evaluation, 5 ppm): 100%
inhibition at 1.25 ppm (Caenorhabditis elegans; Table 10 evaluation, 1.25 ppm): 0%
mortality at 1.25 ppm (Caenorhabditis elegans; Table 10 evaluation, 1.25 ppm): 0%
inhibition at 2.5 ppm (Caenorhabditis elegans; Table 10 evaluation, 2.5 ppm): 100%
mortality at 2.5 ppm (Caenorhabditis elegans; Table 10 evaluation, 2.5 ppm): 100%
pest or weed control at 5 ppm (root-knot nematode; BOTTOM container): 8%
pest or weed control at 5 ppm (root-knot nematode; MIDDLE container): 67%
pest or weed control at 5 ppm (root-knot nematode; TOP container): 98%
pest or weed control at 0.078 ppm [1]: 38%
pest or weed control at 0.156 ppm [1]: 64%
pest or weed control at 0.312 ppm [1]: 86%
pest or weed control at 0.625 ppm [1]: 99%
pest or weed control at 1.25 ppm [1]: 99%
pest or weed control at 2.5 ppm [1, 2]: 100%
pest or weed control at 2.5 ppm (lesion nematode; Table 5, rate 2.5 ppm): 52%

O=[N+]([O-])c1ccc(CSc2nsc(SCCC(F)=C(F)F)n2)cc1 [Compound 26, 3-(4-nitrophenylmethylthio)-5-(3,4,4-trifluoro-3-butenylthio)-1,2,4-thiadiazole]
inhibition at 5 ppm (Caenorhabditis elegans; Table 9 screen, 5 ppm): 100%
mortality at 5 ppm (Caenorhabditis elegans; Table 9 screen, 5 ppm): 100%
mortality at 5 ppm (Caenorhabditis elegans; Table 10 evaluation, 5 ppm): 100%
inhibition at 1.25 ppm (Caenorhabditis elegans; Table 10 evaluation, 1.25 ppm): 100%
mortality at 1.25 ppm (Caenorhabditis elegans; Table 10 evaluation, 1.25 ppm): 100%
inhibition at 2.5 ppm (Caenorhabditis elegans; Table 10 evaluation, 2.5 ppm): 100%
mortality at 2.5 ppm (Caenorhabditis elegans; Table 10 evaluation, 2.5 ppm): 100%
pest or weed control at 0.312 ppm [1]: 0%
pest or weed control at 0.625 ppm [1]: 0%
pest or weed control at 1.25 ppm [1]: 63%
pest or weed control at 2.5 ppm [1, 2]: 86%

O=C1c2ccccc2S(=O)(=O)N1CCC(F)=C(F)F [Compound 24, N-(3,4,4-trifluoro-3-butenyl)saccharine]
pest or weed control at 2.5 ppm [1, 2]: 19%
pest or weed control at 5 ppm [1, 3]: 63%
pest or weed control at 10 ppm [1, 4]: 78%

FC(F)=C(F)CCSc1cccs1 [Compound 10, 2-(3,4,4-trifluoro-3-butenylthio)thiopene]
pest or weed control at 0.625 ppm [1]: 63%
pest or weed control at 1.25 ppm [1]: 81%
pest or weed control at 5 ppm [1, 3]: 99%
pest or weed control at 2.5 ppm [1]: 95%
pest or weed control at 2.5 ppm (lesion nematode): 33%

O=C1CCC(=O)N1CCC(F)=C(F)F [Compound 5, N-(3,4,4-trifluoro-3-butenyl)succinimide]
pest or weed control at 0.313 ppm [1]: 0%
pest or weed control at 0.625 ppm [1]: 6%
pest or weed control at 1.25 ppm [1]: 70%
pest or weed control at 2.5 ppm [1, 2]: 81%

O=C(OCCC(F)=C(F)F)C(F)(F)C(F)(F)F [Compound 19, (3,4,4-trifluoro-3-butenyl) pentafluoropropionate, mono diethyl etherate]
pest or weed control at 2.5 ppm [1, 2]: 58%
pest or weed control at 5 ppm [1, 3]: 75%
pest or weed control at 10 ppm [1, 4]: 69%

O=C(OCCC(F)=C(F)F)c1cccs1 [Compound 20]
pest or weed control at 0.313 ppm [1]: 0%
pest or weed control at 0.625 ppm [1]: 6%
pest or weed control at 1.25 ppm [1]: 63%
pest or weed control at 2.5 ppm [1, 2]: 98%

FC(F)=C(F)CCSc1nnc(-c2ccc(Cl)cc2)s1 [Compound 37, 2-(4-chlorophenyl)-5-(3,4,4-trifluoro-3-butenylthio)-1,3,4-thiadiazole]
inhibition at 5 ppm (Caenorhabditis elegans; Table 9 screen, 5 ppm): 100%
mortality at 5 ppm (Caenorhabditis elegans; Table 9 screen, 5 ppm): 100%
mortality at 5 ppm (Caenorhabditis elegans; Table 10 evaluation, 5 ppm): 100%
inhibition at 1.25 ppm (Caenorhabditis elegans; Table 10 evaluation, 1.25 ppm): 100%
mortality at 1.25 ppm (Caenorhabditis elegans; Table 10 evaluation, 1.25 ppm): 100%
inhibition at 2.5 ppm (Caenorhabditis elegans; Table 10 evaluation, 2.5 ppm): 100%
mortality at 2.5 ppm (Caenorhabditis elegans; Table 10 evaluation, 2.5 ppm): 100%
pest or weed control at 0.078 ppm [1]: 0%
pest or weed control at 0.156 ppm [1]: 0%
pest or weed control at 0.312 ppm [1]: 0%
pest or weed control at 0.625 ppm [1]: 0%

C#CCSc1nnc(SCCC(F)=C(F)F)s1 [Compound 14, 2-propargylthio-5-(3,4,4-trifluoro-3-butenylthio)-1,3,4-thiadiazole]
pest or weed control at 0.313 ppm [1]: 0%
pest or weed control at 0.625 ppm [1]: 0%
pest or weed control at 1.25 ppm [1]: 25%
pest or weed control at 2.5 ppm [1, 2]: 83%

FC(F)=C(F)CCSCc1cc2ccccc2s1 [Compound 11, 2-(3,4,4-trifluoro-3-butenylthiomethyl)-thianaphthene]
pest or weed control at 0.625 ppm [1]: 0%
pest or weed control at 1.25 ppm [1]: 67%
pest or weed control at 2.5 ppm [1, 2]: 78%
pest or weed control at 5 ppm [1, 3]: 83%

O=C(OCCC(F)=C(F)F)c1ccc(Cl)cc1 [Compound 4, (3,4,4-trifluoro-3-butenyl) 4-chlorobenzoate]
pest or weed control at 0.313 ppm [1]: 38%
pest or weed control at 0.625 ppm [1]: 44%
pest or weed control at 1.25 ppm [1]: 56%
pest or weed control at 2.5 ppm [1, 2]: 99%

O=C(OCCC(F)=C(F)F)c1ccc[nH]1 [Compound 22, (3,4,4-trifluoro-3-butenyl) 2-pyrrolecarboxylate]
pest or weed control at 0.313 ppm [1]: 0%
pest or weed control at 0.625 ppm [1]: 0%
pest or weed control at 1.25 ppm [1]: 44%
pest or weed control at 2.5 ppm [1, 2]: 96%

FC(F)=C(F)CCSc1nc(-c2ccc(Cl)cc2)no1 [Compound 39, 3-(4-chlorophenyl)-5-(3,4,4-trifluoro-3-butenylthio)-1,2,4-oxadiazole]
inhibition at 5 ppm (Caenorhabditis elegans; Table 9 screen, 5 ppm): 100%
mortality at 5 ppm (Caenorhabditis elegans; Table 9 screen, 5 ppm): 100%
mortality at 5 ppm (Caenorhabditis elegans; Table 10 evaluation, 5 ppm): 100%
inhibition at 1.25 ppm (Caenorhabditis elegans; Table 10 evaluation, 1.25 ppm): 100%
mortality at 1.25 ppm (Caenorhabditis elegans; Table 10 evaluation, 1.25 ppm): 67%
inhibition at 2.5 ppm (Caenorhabditis elegans; Table 10 evaluation, 2.5 ppm): 100%
mortality at 2.5 ppm (Caenorhabditis elegans; Table 10 evaluation, 2.5 ppm): 100%
Percent Mortality (Caenorhabditis elegans; Table 10 evaluation, 1.25 ppm): 58%
Percent Mortality (Caenorhabditis elegans; Table 10 evaluation, 2.5 ppm): 100%
Percent Mortality (Caenorhabditis elegans; Table 10 evaluation, 5 ppm): 100%
pest or weed control at 0.312 ppm [1]: 19%
pest or weed control at 0.625 ppm [1]: 84%
pest or weed control at 1.25 ppm [1]: 98%
pest or weed control at 2.5 ppm [1, 2]: 100%

O=C(OCCC(F)=C(F)F)C(F)(F)C(F)(F)C(F)(F)F [Compound 3, (3,4,4-trifluoro-3-butenyl) heptafluorobutyrate]
pest or weed control at 2.5 ppm [1]: 71%
pest or weed control at 5 ppm [1]: 83%
pest or weed control at 10 ppm [1]: 95%

O=C(CSC1=NCCS1)OCCC(F)=C(F)F [Compound 23, (3,4,4-trifluoro-3-butenyl) [2-(4,5-dihydrothiazolyl)thio]acetate]
pest or weed control at 2.5 ppm [1, 2]: 76%
pest or weed control at 5 ppm [1, 3]: 84%
pest or weed control at 10 ppm [1, 4]: 96%

Reference: patent US4952580A, “Pesticidal polyhaloalkene derivatives” (priority 1988, dated 1990)
